Experimental data taken from patent US20220151955A1, “KETAMINE FOR THE TREATMENT OF […] AND DISORDERS” (The Ketamine Research Foundation, priority 2019, published 2022).

How the values were obtained:
[1] = cited from earlier work
[2] = tested on: women with postpartum depression; conditions: cited from earlier work
[3] = in vivo; cited from earlier work
[4] = Ketamine levels in the breast milk of lactating women after intramuscular ketamine hydrochloride; assay type: in vivo; conditions: 0.5 and 1.0 mg/kg intramuscular
Experimental: A study of the pharmacodynamics of ketamine in the breast milk of lactating women was performed. Ketamine levels in breast milk were quantified in lactating subjects over time. Four women were given intramuscular injections of ketamine hydrochloride at two doses: 0.5 mg/kg and 1.0 mg/kg at intervals of at least one week apart. Breast milk was collected in one subject at 3 hour intervals through 24 hours, and the succeeding three subjects at 3 hour intervals up to 12 hours. Subjects were of different weights and ethnic backgrounds.
Administered dosages of ketamine ranged from 28 mg to 76 mg. […] For subjects receiving the 0.5 mg/kg dose, the observed range for ketamine in the breast milk of the subject at the 9 to 12 hour collection period (total expression of milk during the period) ranged from 0.09 mg to 1.66 mg. For subjects receiving the 1.0 mg/kg dose, the observed range for ketamine in the breast milk of the subject at the 9 to 12 hour collection period (total expression of milk during the period) ranged from 1.067 mg to 6.22 mg. The highest ketamine level (6.22 mg) was observed following administration of a 76 mg dose of ketamine hydrochloride.

## CN[C@]1(c2ccccc2Cl)CCCCC1=O [S-(+)-ketamine]
[1]; for use in anesthesia
  potency relative to R-(−)-ketamine: twice as potent as R-(−)-ketamine

## CC(=O)[C@H]1CC[C@H]2[C@@H]3CC[C@H]4C[C@H](O)CC[C@]4(C)[C@H]3CC[C@]12C [brexanolone]
[2]; within 60 hours, intravenous over 60 hours, two clinical trials of about 250 women, placebo 25 percent
  women no longer clinically depressed: 50%
[2]; women who received brexanolone
  adverse effects experienced by some women: excessive sedation and sudden loss of consciousness

## CNC1(c2ccccc2Cl)CCCCC1=O (centres unmarked) [ketamine]
[3]
  half-life: less than two and a half hours
[4]
  levels detectable in breast milk at 12 hours: only minimal levels

## NC1(c2ccccc2Cl)CCCCC1=O (centres unmarked) [norketamine]
[1]; active metabolite, as stated in Example 1
  potency relative to ketamine (estimated): one-third the potency of ketamine
[1]; for use in anesthesia
  potency relative to ketamine: one third the potency of ketamine
[4]
  levels detectable in breast milk at 12 hours: only minimal levels
